The source of these data is patent US20210145852A1, “Combination Therapies for Treating Muscular Dystrophy” (Sarepta Therapeutics, Inc., priority 2017, published 2021).

Entries after “also recorded” stand apart in the source; their conditions may differ. Where two headings read alike, the source gives them in different places. {TEG} = triethylene glycol tail moiety

Series [1] relates to NF-κB p65. Conditions: cited from earlier work.
For series [2], the system named is dystrophin protein. Kind of series: Western blot analysis of dystrophin protein levels in Mdx mice. In kind it is in vivo, mouse. Conditions: quadriceps, diaphragm and heart of Mdx mice, combination compared to M23D PMO monotherapy. The source says:
(§1) Wild-type (WT) (C57BL/10ScSn/J) and Mdx (C57BL/10ScSn-Dmd^mdx/J) mice were used to test the efficacy of the M23D PMO (AVI-4225) in combination with CAT-1004. 5-week old mice were acquired from Jackson Labs and acclimated for one-week. The treatment duration was 4 weeks and began when the mice were 6 weeks of age. Mice were divided into the following five treatment groups, each with N=12: (1) wild-type mice treated with saline, (2) Mdx mice treated with saline, (3) Mdx mice treated with CAT-1004, (4) Mdx mice treated with the M23D PMO, and (5) Mdx mice treated with the M23D PMO in combination with CAT-1004. Mice were dosed weekly with M23D PMO (AVI-4225) at 40 mg/kg by IV injection and treated with CAT-1004 (1%) in their diet. All non-CAT-1004 animals were fed a normal chow control diet and all non-M23D PMO animals were given weekly IV injections of saline. Food consumption was closely monitored and the feed was changed twice per week. Mice were sacrificed at 10 weeks of age (4 weeks post-first dose). The quadriceps, diaphragm, and heart were harvested from each of the respective treatment groups.
Dystrophin protein was analyzed by Western blot analysis, and immunohistochemistry. […] Total protein concentration of the protein lysates were measured using Pierce™ BCA Protein Assay Kit (ThermoFisher Scientific catalog #23225). […]
Background: A western blot detects proteins with antibodies after separation by electrophoresis.

In series [3] the test system is Mdx mice. Kind of series: Histology (H&E and picrosirius red staining) of quadriceps, PMO and CAT-1004 efficacy study in Mdx mice. It counts as in vivo, mouse. Conditions: 4 weeks treatment, M23D PMO 40 mg/kg IV weekly or CAT-1004 1% in diet, compared to Mdx mice treated with saline.
Excerpt: as §1, with “All non-CAT-1004 animals were fed a normal chow control diet and all non-M23D PMO animals were given weekly IV injections of saline.” left out, “Mice were sacrificed at 10 weeks of age (4 weeks post-first dose). The quadriceps, diaphragm, and heart were harvested from each of the respective treatment groups.” left out
To assess the effectiveness of a combination treatment of an exon skipping antisense oligonucleotide and an NF-Kb inhibitor in Duchenne muscular dystrophy, M23D PMO and CAT-1004 were utilized in the Mdx mouse model. The effect on inflammation and fibrosis was determined by analyzing samples of muscle taken from the quadriceps, of (1) wild-type mice treated with saline, (2) mdx mice treated with saline, (3) mdx mice treated with CAT-1004, (4) mdx mice treated with the M23D PMO, and (5) mdx mice treated with the M23D PMO in combination with CAT-1004. […]

Series [4] concerns cNF-κB. As to conditions: in vitro; cited from earlier work.
For series [5], the system named is Mdx mice. Conditions: cited from earlier work; for inflammation and fibrosis: mdx mice (Hammers et al.); for phenotype: mdx mouse, long-term treatment; for diaphragm function: mouse DMD model (mdx).
Series [6] relates to golden retriever muscular dystrophy (GRMD) dog. Conditions: cited from earlier work; for phenotype: GRMD dog, long-term treatment; for diaphragm function: dog DMD model.
For series [7] the following is noted: phase I clinical program, adults, placebo-controlled studies; cited from earlier work.
Series [8] concerns mouse dystrophin exon 23 pre-mRNA. The series can be described thus: RT-PCR analysis for exon 23 skipping in Mdx mice. In kind it is in vivo. Conditions: muscle of quadriceps, diaphragm and heart of Mdx mice; 4 weeks treatment.
Excerpt: as §1
For exon skipping analysis, quadriceps, diaphragm, and heart tissue samples were homogenized. […] Exon 23 skipping was determined by Caliper imaging. […] Percentage of skipping was determined using the formula: % skipping=skipped molarity/(unskipped+skipped molarity)×100%. […]

The test system of series [9] is NF-κB. As to conditions: cited from earlier work.
The test system of series [10] is ryanodine receptor. Conditions: patient cells; cited from earlier work.
Series [11] relates to ryanodine receptor. Conditions: mouse model of DMD; cited from earlier work.
For series [12] the following is noted: cited from earlier work.
Series [13] relates to dystrophin. The series can be described thus: Immunohistochemical analysis of dystrophin expression in quadriceps of Mdx mice. As to conditions: compared to Mdx mice treated with saline or CAT-1004 monotherapy. In kind it is in vivo, mouse.
Excerpt: as §1
For immunohistochemistry, frozen quadriceps sections were serially cut and mounted on slides using a cryostat. Sections were rehydrated in PBS and then blocked with Mouse on Mouse (MOM) blocking buffer for 1 hour at room temperature. […]

Series [14] deals with juvenile rats. As to conditions: T cell-dependent antibody responses, immunophenotyping of peripheral blood T- and B-cell subpopulations; cited from earlier work.
Series [15] deals with human DMD transcript. Conditions: hDMD mouse model; cited from earlier work.
Series [16] relates to exon 51 of dystrophin pre-mRNA. Conditions: normal human skeletal muscle cells or muscle cells from DMD patients; RT-PCR and Western blot; cited from earlier work.

Turning to `CC/C=C\C/C=C\C/C=C\C/C=C\C/C=C\C/C=C\CCC(=O)NCCNC(=O)c1ccccc1O` [CAT-1004, N-(2-[(4Z,7Z,10Z,13Z,16Z,19Z)-docosa-4,7,10,13,16,19-hexaenamido]ethyl)-2-hydroxybenzamide], in series [1] (dog model of DMD), the NF-κB activity entry is recorded as “decreases NF-κB activity”, the “binding of the p65 subunit to DNA” value is listed as “reduced binding of the p65 subunit to DNA” and the “secretion of the inflammatory mediator TNF-α” value was “reduced secretion of the inflammatory mediator TNF-α”. Also, in [1] (golden retriever DMD model), the “NF-κB p65-dependent inflammatory responses and downstream proinflammatory genes modulated by p65” value is reported as “significantly inhibit”. Also, in series [2], the dystrophin production entry was “neither exon skipping nor dystrophin production were observed”. The “inflammation and fibrosis in quadriceps” value in series [3] is “reduction of inflammation and fibrosis”. Besides, the cNF-κB activation result in series [4] is on record as “inhibit cNF-κB activation in vitro”. Moreover, in series [5], the inflammation and fibrosis result is “reduced inflammation and fibrosis”; the phenotype result is given as “improves the phenotype”; the diaphragm function entry is “improved diaphragm function”. In addition, in series [5] (mdx mice, long-term studies), the cumulative run distance result is “increased cumulative run distance”. For the same compound, in series [5] (mdx mice), the exercise endurance result is on record as “increased exercise endurance”; the “muscle degeneration and inflammation” value was “reduce muscle degeneration and inflammation”; the muscle function entry is given as “preserve muscle function”; the muscle regeneration entry is given as “enhance muscle regeneration”. Also, in [6], the phenotype entry is “improves the phenotype” and the diaphragm function entry is reported as “improved diaphragm function”. Moreover, the safety and tolerability result in series [7] is on record as “safe, well tolerated”. The “exon 23 skipping” value in series [8] is “neither exon skipping nor dystrophin production were observed”. Besides, the “levels of the p65 subunit of NF-κB” value in series [9] (healthy adult humans, compared to placebo or salicylate and omega-3 DHA as separate molecules) is “lowers levels of the p65 subunit of NF-κB”. For the same compound, the “biomarkers of inflammation in whole blood” value in [9] (humans) is on record as “decrease of biomarkers of inflammation”. The “activated NF-κB pathways” value in series [9] (phase I clinical program in adults, listed as Edasalonexent) is “inhibited activated NF-kB pathways; also recorded: inhibited activated NF-κB pathways”.

In the case of `CC/C=C\C/C=C\C/C=C\C/C=C\C/C=C\CCCC(=O)NCCNC(=O)c1ccccc1O` [CAT-1041], the cNF-κB activation result in series [4] was “inhibit cNF-κB activation in vitro”. Besides, in series [5], the inflammation and fibrosis entry was “reduced inflammation and fibrosis”; the phenotype entry is given as “improves the phenotype”; the diaphragm function result was “improved diaphragm function”. For the same compound, in series [5] (mdx mice, long-term studies), the muscle fibrosis result is listed as “reduces muscle fibrosis” and the skeletal muscle weight entry is listed as “increases skeletal muscle weight”. Moreover, in [5] (mdx mice), the exercise endurance entry is reported as “increased exercise endurance” and the muscle function entry was “preserves muscle function”. Moreover, in series [6], the phenotype entry is reported as “improves the phenotype” and the diaphragm function entry is given as “improved diaphragm function”.

For the compound `O=C1CN(/N=C/c2ccc(-c3ccc([N+](=O)[O-])cc3)o2)C(O)=N1` [dantrolene], the antisense-mediated exon skipping result in series [10] and in series [11] was “enhance antisense-mediated exon skipping” throughout.

Turning to G-2-beta-cyclodextrin, in series [12], the solubility in water is 147 % (w/v).

Turning to “M23D PMO: PMO hybridizing to mouse dystrophin exon 23 pre-mRNA, TEG tail at 5′ end, sequence GGCCAAACCTCGGCTTACCTGAAAT (SEQ ID NO: 30) (antisense GGCCAAACCTCGGCTTACCTGAAAT; all phosphorodiamidate morpholino (PMO), 5' {TEG})”, in series [3], the “inflammation and fibrosis in quadriceps” value is “reduction of inflammation and fibrosis”. Moreover, the “dystrophin expression (immunohistochemistry)” value in series [13] was “increase in dystrophin expression”. The “exon 23 skipping” value in series [8] is “Exon skipping was observed”.

Take eteplirsen: in series [14], the “effect on the immune response” value was “no adverse effect on the immune response”. The “exon 51 skipping in vivo” value in series [15] was “confirmed in vivo”. The “exon 51 skipping” value in series [16] was “potent inducer of exon 51 skipping”.

For triacetyl-beta-cyclodextrin, in series [12], the “solubility in water (in words)” value is on record as “insoluble”.
